From US11401508B2, “Methods for isolating human cardiac ventricular progenitor cells” (Procella Therapeutics AB, priority 2016, dated 2022)

Tests used:
Porcn = biological target: T1, Porcn (Homo sapiens, UniProt Q9H237); conditions: read-out: IC50 (Porcn inhibitor); cited from earlier work
T1 sequence (Q9H237 1-461): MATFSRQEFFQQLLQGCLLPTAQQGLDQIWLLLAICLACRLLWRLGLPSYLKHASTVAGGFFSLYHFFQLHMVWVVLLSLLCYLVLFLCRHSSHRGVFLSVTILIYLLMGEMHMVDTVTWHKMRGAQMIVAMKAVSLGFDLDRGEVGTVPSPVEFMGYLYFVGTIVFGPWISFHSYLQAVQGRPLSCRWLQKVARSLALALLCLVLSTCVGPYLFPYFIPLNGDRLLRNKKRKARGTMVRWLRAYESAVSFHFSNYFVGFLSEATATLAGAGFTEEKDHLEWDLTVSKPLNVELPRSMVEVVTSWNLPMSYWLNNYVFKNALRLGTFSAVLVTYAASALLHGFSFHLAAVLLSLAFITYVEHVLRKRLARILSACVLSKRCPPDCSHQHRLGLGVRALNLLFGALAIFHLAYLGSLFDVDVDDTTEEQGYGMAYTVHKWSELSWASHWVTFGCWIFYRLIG

hPSCs = assay: Cardiac differentiation of hPSCs, lineage markers by flow cytometry and immunostaining; assay type: cell-based, human
Method: Cells were then cultured in mTeSR1, changed daily.
Data were collected on a FACSCaliber flow cytometer (Beckton Dickinson) and analyzed using FlowJo.

[1] = system: mature human muscle organ; assay: Force generation of muscle strips from HVP-derived human muscle organ on electric stimulation; conditions: 5-month graft, p<0.05 compared to control
Source text: Animals were sacrificed and the engrafted kidneys were removed for further analysis. The 5-month human graft was a hemisphere structure with the radius of 0.4 cm (diameter of 0.8 cm). […] In addition, muscle trips taken from our mature human muscle organ generated forces (0.36±0.04 mN) in response to electric stimulation and increased their force generation after treatment with a β-adrenergic agonist isoprenaline (0.51±0.02 mN, p<0.05 compared to control). Taken together, these studies indicate that the HVPs are capable of generating a fully functional, mature human ventricular muscle organ in vivo via a cell autonomous pathway, i.e., without the addition of other cells, genes, matrix proteins, or biomaterials.

GSK-3, β = GSK-3, β (Homo sapiens, UniProt P49841); conditions: read-out: IC50 GSK-3 β; cited from earlier work
GSK-3, β, sequence (P49841 whole entry, species assumed): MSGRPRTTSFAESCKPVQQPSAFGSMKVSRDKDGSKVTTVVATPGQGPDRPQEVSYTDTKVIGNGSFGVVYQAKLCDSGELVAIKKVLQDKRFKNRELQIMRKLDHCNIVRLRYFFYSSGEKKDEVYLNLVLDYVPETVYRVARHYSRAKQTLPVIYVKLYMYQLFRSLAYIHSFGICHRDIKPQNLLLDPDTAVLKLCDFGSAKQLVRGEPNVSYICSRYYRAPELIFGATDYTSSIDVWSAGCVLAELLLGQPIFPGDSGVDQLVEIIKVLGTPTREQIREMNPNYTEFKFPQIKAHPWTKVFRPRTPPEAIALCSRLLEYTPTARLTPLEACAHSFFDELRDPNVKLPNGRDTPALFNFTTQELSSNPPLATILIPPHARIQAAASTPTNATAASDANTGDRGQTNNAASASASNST

GSK-3 α = GSK-3 α (Homo sapiens, UniProt P49840); conditions: cited from earlier work
GSK-3 α, sequence (P49840 whole entry, species assumed): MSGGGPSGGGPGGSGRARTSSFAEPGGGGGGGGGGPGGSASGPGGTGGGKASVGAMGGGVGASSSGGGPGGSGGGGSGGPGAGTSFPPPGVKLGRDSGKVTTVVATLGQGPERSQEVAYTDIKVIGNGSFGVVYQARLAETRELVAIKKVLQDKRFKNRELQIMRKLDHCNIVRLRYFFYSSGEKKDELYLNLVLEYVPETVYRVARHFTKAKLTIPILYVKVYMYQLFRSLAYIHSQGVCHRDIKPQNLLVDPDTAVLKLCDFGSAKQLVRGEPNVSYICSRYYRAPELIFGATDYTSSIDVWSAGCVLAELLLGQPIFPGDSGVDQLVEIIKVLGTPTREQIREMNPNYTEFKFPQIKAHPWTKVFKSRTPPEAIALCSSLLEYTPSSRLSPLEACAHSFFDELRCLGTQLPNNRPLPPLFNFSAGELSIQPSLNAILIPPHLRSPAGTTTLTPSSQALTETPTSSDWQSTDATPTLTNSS

## Cc1ccc2nc(NC(=O)CSc3nc4c(c(=O)n3-c3ccccc3)SCC4)sc2c1 [IWP2]
Porcn
  IC50: 27 nM

## Cc1cc(-c2ccc(CC(=O)Nc3ccc(-c4cccnc4)cc3)cc2)ccn1 [Wnt-059]
hPSCs; 48-hour treatment
  ventricular progenitor differentiation from mesoderm cells: enhanced ventricular progenitor differentiation
Porcn
  IC50: 0.074 nM

## CC(C)NCC(O)c1ccc(O)c(O)c1 (centres unmarked) [isoprenaline]
[1]
  force generated by muscle strips after treatment with β-adrenergic agonist: 0.51±0.02 mN

## CHIR98014
hPSCs; after 24 hour treatment
  hPSCs expressing the mesoderm marker Brachyury: more than 99%
hPSCs; three days after treatment
  differentiated cells expressing Mesp1 (cardiac mesoderm): more than 95%
GSK-3, β
  IC50: 0.58 nM
GSK-3 α
  IC50: 0.65 nM
